According to patent US10668048B2, “Compounds for inhibiting bacterial growth via phosphatidylglycerol binding” (Wichita State University, priority 2016, dated 2020):

Legend:
Assay type in all cases: cell-based
[1] = tested on: Gram-positive, Gram-negative, and Mycobacteria; experiment: Growth curves in BHI culture with liptin 3e
Description: Growth curves were generated from liquid shake-flask cultures using absorbance measurements at 600 nm at different concentrations of liptin 3e. Uninoculated control flasks were used as blanks. Absorbance values of 0.1 OD unit was considered reasonable threshold for positive growth. […] Liptin exposure appears to stop bacterial growth, as evidenced by long lag phases, which increase with liptin concentration. In most cases, cultures recover, but growth rates and maximum cell densities are decreased with liptin treatment.
Bacterial growth rates were reduced by liptin 3e treatment in a concentration-dependent manner. Rates were determined as the slope of the log phase of the growth curve, after the lag phase. An exponential relationship exists with marginally significant differences (p<0.1).
Maximum culture densities represent the carrying capacity of a culture flask.

[2] = tested on: E. Coli (JMR 223-MC4100); experiment: MIC in LB culture; conditions: overnight 37° C.
Procedure: An E. Coli (JMR 223-MC4100) plate was grown up overnight in LB agar at 37° C. A good colony was selected and added to 5 mL LB growth media. This was incubated at 37° C. with shaking at 250 rpm until the solution reaches an OD of at least 0.5 or higher at 600 nm. A final solution was diluted 500× to an OD of 0.001, correlating to a CFU of 1×10^6. 5 ml solutions of the diluted bacterial broth were measured out. Liptins were added to make solutions of 20 μM, 15 μM, 10 μM, 5 μM, 4 μM, 3 μM, 2 μM, and 1 μM (This means adding 0.2 mL, 0.15 mL, 0.1 mL, 0.05 mL, 0.04 mL, 0.03 mL, 0.02 mL, 0.01 mL of the 500 μM solution). Cultures were allowed to incubate overnight at 37° C. with shaking at 250 rpm. The following day, cultures were analyzed to evaluate the presence or absence of bacterial growth by spectrophotometry at 600 nm (0.66 mg of liptin in 0.95 mL of water; 0.15 OD Diluted 150× to OD of 0.001). […] Growth was not observed in the 2 μM and up solutions. See FIGS. 11A-11B for a visual image of the E. coli cultures.

[3] = tested on: HepG2 human hepatocyte cells; experiment: Hepatocyte toxicity, MTT assay; conditions: 9-12 hours; down to 0.5 μM
Procedure: Toxicity of compounds to eukaryotic cells was assessed by MTT assay of cultured HepG2 human hepatocyte cells grown in media supplemented with 10% fetal bovine serum and antibiotics.
Human liver HepG2 cells were cultured in 100 mm^2 Falcon tissue culture plates in DMEM with high glucose (4500 mg/L) supplemented with 10% fetal bovine serum, 50 μg/ml streptomycin and 50 IU/ml penicillin at 37° C. and 5% CO2. Cells were cultured to about 70-80% confluence, and then seeded into 96 well plates depending and grown to 70-80% confluence for 2-3 days unless otherwise stated.
Cell viability was determined by MTT [3-(4,5-dimethylthiazol-2-yl)-2,5-diphenyltetrazolium bromide)] assay (Denizot & Lang 1986). Briefly, cells were seeded on 96-well plates and allowed to grow until 70-80% confluence. Prior to the experiment, medium was replaced with KRB containing a desired concentration of the toxin or other reagents and incubated for 9 h to 12 h depending on the experiment at 37° C. […] The resulting formazan was solubilized by the addition of 210 μL detergent solution (50% DMF, 20% SDS) followed by incubation for 4 h at 37° C. and was quantified based on the difference in the absorbance at 570 nm and 650 nm (Mosmann 1983). Results are expressed as viability of toxin treated cells with respect to control cells which were treated under the same conditions except in the absence of the toxin. […]

[4] = tested on: S. aureus (33186); experiment: Serial passage resistance experiment; conditions: 0.5 MIC, LB, 37° C., 80-100 generations
Description: (§1) Triplicate serial passage experiments were undertaken with E. coli (MC4100), S. aureus (33186) and E. feucalis (29213).

[5] = tested on: E. feucalis (29213); experiment: Serial passage resistance experiment; conditions: 0.5 MIC, LB, 37° C., 80-100 generations
Description: as §1

[6] = tested on: E. coli (MC4100); experiment: Serial passage resistance experiment; conditions: 0.5 MIC, LB, 37° C., 80-100 generations
Description: as §1

[7] = tested on: Enterococcus faecalis 29213; experiment: MIC in LB culture
Procedure: Strep fuecalis (aka Enterococcus faecalis 29213) cultures were prepared the same way as S. aureus, and analyzed as above. […] The OD600 of the control was 0.72. […] See photos for visual representation. See FIG. 11D for a visual image of the S. fuecalis cultures.

[8] = tested on: Staphylococcus aureus str. ATCC 29213; experiment: Long term growth study in brain-heart infusion medium
Procedure: (§2) Staphylococcus aureus str. ATCC 29213 was grown as shake-tubes in brain-heart infusion medium supplemented with liptin and culture densities were measured by turbidity (FIG. 13A). At 0.5 μM 3e, there was an 8-h lag phase before culture density began to increase, which was not seen without addition of liptin 3e. Further, the growth rate was substantially lower over the next 12 h as culture density approached that of controls. Lag phases were on the order of days to weeks at liptin concentrations of ≥1.5 μM, and slow recovery followed. […] Growth of Escherichia coli str. […] Our novel antibacterial compounds attack plasma membranes through a less specific mode of action, which may avoid the pitfalls that lead to antibiotic resistance.

[9] = tested on: Escherichia coli str. MC4100; experiment: as above
Procedure: as §2

[10] = tested on: Red blood cells (RBCs); experiment: Erythrocyte toxicity, hemoglobin release at 414 nm; conditions: 2.5-5 μM, 30 minutes, 37° C.
Procedure: Toxicity of liptin 3e to eukaryotic erythrocytes was assessed by UV/Visible spectroscopy, whereby the change in absorbance at 414 nm was used to quantify the release of hemoglobin, where 100% hemolysis was measured by adding 1% Triton X-100 detergent. Red blood cells (RBCs) were suspended in a buffer of 25 mM TRIS and 1.5 mM dihydrogenphosphate anion (serum inorganic phosphate levels). To the RBCs samples was added differing concentration of 3e—2.5 μM, 5 μM, 7.5 μM, and 10 μM, as well as control containing no 3e, and after 30 minutes incubation and gentle shaking at 37° C. spectra were obtained.

[11] = E. coli and S. aureus, concentration-dependent

NCC(=O)Nc1ccccc1-c1c2nc(c(-c3ccccc3NC(=O)CN)c3ccc([nH]3)c(-c3ccccc3NC(=O)CN)c3nc(c(-c4ccccc4NC(=O)CN)c4ccc1[nH]4)C=C3)C=C2.O=C(O)C(F)(F)F.O=C(O)C(F)(F)F.O=C(O)C(F)(F)F.O=C(O)C(F)(F)F [Liptin 3e]
bacterial growth rates [1, 11]: reduces bacterial growth rates | maximum culture density [1, 11]: decreases maximum culture density | antibacterial activity from growth curves ([1]; one inoculation, BHI): highly bacteriostatic activity | MIC [2]: 1 to 2 µM | toxicity (cell viability, MTT) [3]: lack of toxicity | MIC after 15 serial passages [4]: no different than initial MICs | MIC after 15 serial passages [5]: no different than initial MICs | MIC after 15 serial passages [6]: no different than initial MICs | effect on bacterial growth [7]: inhibits bacterial growth | lag phase ([8]; 0.5 μM): 8 h | lag phases ([8]; ≥1.5 μM): days to weeks | lag phases ([9]; 1.5 μM): 8 h | lag phases ([9]; 10 μM): greater than 24 h | damage to red blood cells (hemolysis) [10]: 4.5-11%
